Tests used:
Type in all cases: in vivo, C57BL/6J male mice
[1] = Experimental Example 2: mice fed 10/20/40/60% protein energy diets with or without 3% lysine hydrochloride for 4 weeks; details: after 4 weeks, vs respective diet without lysine supplementation
From the text: The following feeding stuffs were respectively provided for 4 weeks to 8 groups of 9-week-old C57BL/6J male mice, consisting of 10 individuals per group (n=10): (1) 10% protein energy diet (LP; dietary energy composition ratio was protein:fat:carbohydrate=1:1:8), (2) 10% protein energy diet supplemented with lysine hydrochloride (LPK), (3) 20% protein energy diet (LF; protein:fat:carbohydrate=2:1:7), (4) 20% protein energy diet supplemented with lysine hydrochloride (LFK), (5) 40% protein energy diet (MP; protein:fat:carbohydrate =4:1:5), (6) 40% protein energy diet supplemented with lysine hydrochloride (MPK), (7) 60% protein energy diet (HP; protein:fat:carbohydrate=6:1:3), and (8) 60% protein energy diet supplemented with lysine hydrochloride (HPK). The diets, when supplemented with lysine hydrochloride, were added with 3% lysine hydrochloride.
After 4 weeks the experimental period, the body weight, the total fat weight(sum of epididymal fat, perirenal fat, mesenteric fat, and subcutaneous fat in the periphery of the femoral region), and the kidney weight were measured. Statistical analysis was performed using Dunnett's test, employing the respective groups fed with the diets without lysine supplementation as the controls.

[2] = Experimental Example 1: high fat diet-induced obese mice fed a 20% protein energy diet supplemented with lysine hydrochloride for 8 weeks
From the text: A high fat diet (dietary energy composition ratio was protein:fat:carbohydrate=17:46:37) was provided for 16 weeks to 30 5-week-old C57BL/6J male mice. At the 16th week, the 30 mice were divided into 3 groups, each consisting of 10 individuals (n=10), and from then, the following diets were provided for 8 weeks to the 3 groups, respectively, (1) 20% protein energy diet (LF; protein:fat:carbohydrate=2:7:1), (2) 20% protein energy diet supplemented with 1% lysine hydrochloride (LF1K; containing 1% lysine hydrochloride (0.8% lysine base)), and (3) 20% protein energy diet supplemented with 3% lysine hydrochloride (LF3K; containing 3% lysine hydrochloride (2.4% lysine base)). Herein, the term “lysine base” refers to free-form lysine. Further, as a nonobese group, a group (LL) was prepared consisting of 10 mice of the same species that were fed with 20% protein energy diet (protein:fat:carbohydrate=2:7:1) from the start of the experiment until the end, i.e., for 24 weeks.
The food intakes were measured and the energy intakes were determined from the energy per g of each test diet. After 8 weeks of the experimental period, the body weight and the total fat weight (sum of epididymal fat, perirenal fat, mesenteric fat, and subcutaneous fat in the periphery of the femoral region) were measured. Statistical analysis was performed using Dunnett's test employing the LF group as the control.

[3] = Experimental Example 3: mice fed high fat feed supplemented with lysine hydrochloride, triglyceride concentration in blood plasma
From the text: The following diets were respectively provided for 8 weeks to 4 groups of 9-week-old C57BL/6J male mice, consisting of 10 individuals per group (n=10): (1) 20% protein energy diet (LF; dietary energy composition ratio was protein:fat:carbohydrate=2:7:1), (2) high fat feed (HF; protein:fat:carbohydrate=17:46:37), (3) high fat food supplemented with 1% lysine hydrochloride (HF1K; containing 1% lysine hydrochloride (0.8% lysine base)), and (4) high fat feed supplemented with 3% lysine hydrochloride (HF3K; containing 3% lysine hydrochloride (2.4% lysine base)).
After 8 weeks of the experimental period, the triglyceride concentration in the blood plasma was measured. Statistical analysis was performed using Dunnett's test employing the HF group as the control.

[4] = after 8 weeks, 1% or 3% lysine hydrochloride in 20% protein energy diet, vs LF group, Dunnett's test p<0.05, dose-dependent
[5] = mice, feeding stuff having 20% protein energy, lysine component(s) 0.8 to 3.0 wt % on the dry matter basis

Cl.NCCCC[C@H](N)C(=O)O [lysine hydrochloride, L-Lysine hydrochloride]
total fat weight [1]: decrease | body weight ([1]; Dunnett's test p<0.05): decrease | body weight upon the autopsy [2, 4]: significant decrease | total fat weight (sum of epididymal, perirenal, mesenteric and femoral subcutaneous fat) [2, 4]: significant decrease | increase in body fat [2, 5]: suppressed | increase in body weight [2, 5]: suppressed | increase in the triglyceride concentration in the blood plasma due to intake of the high fat diet ([3]; after 8 weeks, 1% or 3% lysine hydrochloride in high fat feed, vs HF group, Dunnett's test p<0.05): significantly inhibited | improvement effect for hyperlipidemia ([3]; mice, lysine component(s) 0.8 to 3.0 wt % on the dry matter basis): improvement effect for hyperlipidemia was exhibited
